Read-outs that look alike come from different tables or passages of the source.
Assays:
CLL cells = test: In vitro stroma-induced CLL proliferation model (BrdU incorporation); type: cell-based, human; conditions: BTK-mutated (C481S) CLL cells, FIG. 3C, untreated 31%
CML = conditions: cited from earlier work

`CC[C@H](Nc1ncnc2[nH]cnc12)c1nc2cccc(F)c2c(=O)n1-c1ccccc1` [GS-1101] gave a proliferation (CLL cells) of 14%.
In the case of `Cc1cccc(Nc2nc(N[C@@H]3CCCC[C@@H]3N)ncc2C(N)=O)c1` [PRT060318], the “proliferation (in words)” value (CLL cells) is reported as “complete inhibition of proliferation”.
For `CCS(=O)(=O)N1CCN(c2ccc(Nc3ncc(C(N)=O)c(NC4CC4)n3)cc2)CC1` [PRT062070], the “proliferation (in words)” value (CLL cells) was “complete inhibition of proliferation”.
In the case of `Cc1ccc(NC(=O)c2ccc(CN3CCN(C)CC3)cc2)cc1Nc1nccc(-c2cccnc2)n1` [imatinib], the patients who relapse (CML; advanced CML) is listed as 66% and the patients who relapse (CML; chronic CML, within the first few years) is listed as 5%.
`C[C@@H]1CCN(C(=O)CC#N)C[C@@H]1N(C)c1ncnc2[nH]ccc12` [tofacitinib] gave a proliferation (CLL cells) of 21%.
